Measured values reported in ChEMBL document CHEMBL1137784, “L337H mutant of rat neuronal nitric oxide synthase resembles human neuronal nitric oxide synthase toward inhibitors” (J Med Chem, 2009).

Assays:
Nitric oxide synthase 1 [1] = biological target: Nitric oxide synthase 1 (Rattus norvegicus, UniProt P29476); experiment: Inhibition of wild type rat nNOS by hemoglobin capture assay
Nitric oxide synthase 1 [2] = biological target: Nitric oxide synthase 1 (Rattus norvegicus, UniProt P29476, L337H)
Nitric oxide synthase 1 (Rattus norvegicus, UniProt P29476, L337H), sequence (P29476 whole entry L337H): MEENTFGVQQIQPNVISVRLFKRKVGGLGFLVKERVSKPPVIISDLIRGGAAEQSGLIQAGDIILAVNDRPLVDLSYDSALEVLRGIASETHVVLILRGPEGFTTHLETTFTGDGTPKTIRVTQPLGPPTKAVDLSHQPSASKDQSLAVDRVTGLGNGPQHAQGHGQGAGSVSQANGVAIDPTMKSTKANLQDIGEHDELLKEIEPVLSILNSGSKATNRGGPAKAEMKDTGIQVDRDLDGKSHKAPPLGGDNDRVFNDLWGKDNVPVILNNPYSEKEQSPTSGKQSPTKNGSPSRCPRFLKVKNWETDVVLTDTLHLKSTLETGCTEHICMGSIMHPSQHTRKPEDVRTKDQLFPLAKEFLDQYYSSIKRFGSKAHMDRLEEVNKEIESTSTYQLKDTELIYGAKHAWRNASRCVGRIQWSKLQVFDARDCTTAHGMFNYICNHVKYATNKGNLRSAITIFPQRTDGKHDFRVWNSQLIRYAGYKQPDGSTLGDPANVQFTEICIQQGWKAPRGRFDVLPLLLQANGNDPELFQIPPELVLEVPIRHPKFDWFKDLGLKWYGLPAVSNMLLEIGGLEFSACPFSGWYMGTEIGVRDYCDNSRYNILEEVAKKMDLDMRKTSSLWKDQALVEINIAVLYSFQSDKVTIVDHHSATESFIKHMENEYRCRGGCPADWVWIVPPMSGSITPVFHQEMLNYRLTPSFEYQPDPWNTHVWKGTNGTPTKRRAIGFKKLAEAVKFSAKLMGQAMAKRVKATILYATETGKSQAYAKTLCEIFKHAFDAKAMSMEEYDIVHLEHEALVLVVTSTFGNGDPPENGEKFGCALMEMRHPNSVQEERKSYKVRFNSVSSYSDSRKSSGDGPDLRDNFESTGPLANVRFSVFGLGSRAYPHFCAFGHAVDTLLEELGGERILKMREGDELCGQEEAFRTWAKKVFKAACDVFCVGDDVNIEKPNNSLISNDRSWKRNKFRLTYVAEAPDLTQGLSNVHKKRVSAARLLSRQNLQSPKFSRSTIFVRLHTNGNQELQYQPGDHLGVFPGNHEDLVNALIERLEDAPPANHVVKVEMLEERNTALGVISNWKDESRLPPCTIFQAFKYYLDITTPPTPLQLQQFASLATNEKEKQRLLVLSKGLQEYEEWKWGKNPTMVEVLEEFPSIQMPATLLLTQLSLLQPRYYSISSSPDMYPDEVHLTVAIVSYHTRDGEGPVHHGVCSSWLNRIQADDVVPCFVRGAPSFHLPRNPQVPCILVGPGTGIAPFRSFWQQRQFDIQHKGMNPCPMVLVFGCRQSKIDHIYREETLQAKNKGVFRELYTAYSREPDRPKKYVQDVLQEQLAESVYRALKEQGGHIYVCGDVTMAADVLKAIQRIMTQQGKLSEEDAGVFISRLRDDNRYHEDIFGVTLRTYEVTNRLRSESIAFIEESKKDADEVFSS

Nitric oxide synthase 1 [3] = biological target: T1, Nitric oxide synthase 1 (Homo sapiens, UniProt P29475); experiment: Inhibition of human nNOS by hemoglobin capture assay
T1 sequence (P29475 whole entry): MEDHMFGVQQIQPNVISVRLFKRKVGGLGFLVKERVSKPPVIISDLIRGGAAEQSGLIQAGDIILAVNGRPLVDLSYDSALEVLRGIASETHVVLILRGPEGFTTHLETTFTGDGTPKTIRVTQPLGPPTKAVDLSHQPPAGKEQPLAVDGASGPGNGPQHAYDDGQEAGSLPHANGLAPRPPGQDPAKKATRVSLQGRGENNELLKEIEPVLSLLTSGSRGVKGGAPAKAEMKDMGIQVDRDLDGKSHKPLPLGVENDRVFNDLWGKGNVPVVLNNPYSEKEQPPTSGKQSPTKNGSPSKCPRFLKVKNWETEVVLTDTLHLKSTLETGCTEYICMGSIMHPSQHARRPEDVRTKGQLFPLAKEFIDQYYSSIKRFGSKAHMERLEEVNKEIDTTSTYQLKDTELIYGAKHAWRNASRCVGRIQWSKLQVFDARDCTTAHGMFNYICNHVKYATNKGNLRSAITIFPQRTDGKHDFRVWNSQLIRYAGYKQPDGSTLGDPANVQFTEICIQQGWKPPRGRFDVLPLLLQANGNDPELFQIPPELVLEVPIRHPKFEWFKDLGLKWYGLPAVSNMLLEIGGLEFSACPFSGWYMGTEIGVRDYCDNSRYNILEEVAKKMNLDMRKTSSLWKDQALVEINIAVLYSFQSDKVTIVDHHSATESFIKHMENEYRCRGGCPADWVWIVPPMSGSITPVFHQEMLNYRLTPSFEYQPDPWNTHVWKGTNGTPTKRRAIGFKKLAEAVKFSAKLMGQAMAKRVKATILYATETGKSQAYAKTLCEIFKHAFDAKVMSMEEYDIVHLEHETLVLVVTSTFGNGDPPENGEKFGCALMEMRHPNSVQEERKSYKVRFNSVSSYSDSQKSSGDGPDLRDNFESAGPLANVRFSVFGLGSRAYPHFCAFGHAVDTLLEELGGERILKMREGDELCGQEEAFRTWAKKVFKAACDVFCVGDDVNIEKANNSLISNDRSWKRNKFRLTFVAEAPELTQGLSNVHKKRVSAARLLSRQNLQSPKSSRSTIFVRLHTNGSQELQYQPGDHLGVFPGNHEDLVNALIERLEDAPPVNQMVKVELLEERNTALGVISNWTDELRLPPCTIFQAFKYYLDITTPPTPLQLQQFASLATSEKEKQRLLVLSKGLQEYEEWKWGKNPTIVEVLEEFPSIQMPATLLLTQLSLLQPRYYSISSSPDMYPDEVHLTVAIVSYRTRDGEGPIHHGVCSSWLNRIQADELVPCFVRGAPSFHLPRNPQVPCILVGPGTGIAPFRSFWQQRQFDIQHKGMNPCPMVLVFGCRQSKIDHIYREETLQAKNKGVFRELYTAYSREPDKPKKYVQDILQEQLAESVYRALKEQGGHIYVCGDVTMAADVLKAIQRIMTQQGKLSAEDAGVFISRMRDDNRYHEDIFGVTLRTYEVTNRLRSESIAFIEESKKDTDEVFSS

Rattus norvegicus = species on record: Rattus norvegicus; experiment: Selectivity ratio of IC50 for wild type rat nNOS to IC50 for rat nNOS L337H mutant by hemoglobin capture assay
[4] = Selectivity ratio of IC50 for wild type rat nNOS to IC50 for human nNOS by hemoglobin capture assay
Nitric oxide synthase 1 [5] = biological target: T1, Nitric oxide synthase 1; experiment: Inhibition of human nNOS by radioactivity assay

Nitric oxide synthase 1 (Rattus norvegicus, UniProt P29476), sequence (P29476 whole entry): as the sequence (P29476 whole entry L337H) above, with H337L counted along it

IC50 (Nitric oxide synthase 1 [1]) | IC50 (Nitric oxide synthase 1 [2]) | IC50 (Nitric oxide synthase 1 [3]) | Ratio IC50 (Rattus norvegicus) | Ratio IC50 [4] | IC50 (Nitric oxide synthase 1 [5]) | Compound
0.1 µM | 0.1 µM | 0.1 µM | 1.1 | 1 |  | Cc1cc(C)nc(N)c1
 |  | 0.6 µM |  |  | 0.7 µM | Cc1cc(N)nc(CC2CNCC2OCCNCCc2cccc(F)c2)c1 (racemic)
1.3 µM | 3.4 µM | 4 µM | 2.7 | 3.1 |  | Cc1cc(N)nc(CC2CNCC2NCCN)c1 (racemic)
0.7 µM | 4 µM | 3 µM | 5.7 | 4.3 |  | Cc1cc(N)nc(CC2CNCC2NC(=O)CNCCc2cccc(F)c2)c1 (racemic)
1.1 µM | 5 µM | 4.2 µM | 4.6 | 3.8 |  | Cc1cc(N)nc(CC2CNCC2NCCNCCc2ccc(Cl)cc2)c1 (racemic)

Compound | IC50 (Nitric oxide synthase 1 [1]) | IC50 (Nitric oxide synthase 1 [2]) | IC50 (Nitric oxide synthase 1 [3]) | Ratio IC50 (Rattus norvegicus) | Ratio IC50 [4] | IC50 (Nitric oxide synthase 1 [5])
NCCNC1CNCC1Cc1cccc(N)n1 (racemic) |  |  | 15.3 µM |  |  | 
Cc1cc(N)nc(CC2CNCC2NCCOCCc2cccc(F)c2)c1 (racemic) | 2.9 µM | 5.5 µM | 6.6 µM | 1.9 | 2.4 | 
